Laboratory results reported in patent publication US11066369B2, “N-(pyridin-2-yl)pyridine-sulfonamide derivatives and their use in the treatment of disease” (Novartis AG, priority 2016, dated 2021).

Molecular target: T1, horseradish peroxidase (HRP) tagged delF508-CFTR (Homo sapiens, UniProt P13569, DEL508-508)
T1 construct: expressed in transfected cells
Experiment: Measurement of delF508-CFTR-HRP surface expression in CFBE41o- cells;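 on DelF508-CFTR-HRP Amax %: percent efficacy relative to reference corrector lumacaftor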
Assay type: cell-based
Settings: CFBE41o- cells; for EC50: mean of at least two replicates, read-out: DelF508-CFTR-HRP EC50; for Emax: surface expression Amax, read-out: DelF508-CFTR-HRP Amax %
In short: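 Surface-trafficked delF508-CFTR detected via extracellular HRP tag, read as luminescence from a membrane-impermeant substrate in CFBE41o- cells. Cells pre-induced 48h with 500 ng/mL doxycycline, then exposed 24h at 37° C to a 10-point, 3-fold dilution series from 10 μM (DMSO ≤0.5%). Triplicate dose-responses fitted logistically for EC50 after per-plate normalization; fold change versus reference compound.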

T1 sequence (P13569 with tags, fused parts or gaps DEL508-508): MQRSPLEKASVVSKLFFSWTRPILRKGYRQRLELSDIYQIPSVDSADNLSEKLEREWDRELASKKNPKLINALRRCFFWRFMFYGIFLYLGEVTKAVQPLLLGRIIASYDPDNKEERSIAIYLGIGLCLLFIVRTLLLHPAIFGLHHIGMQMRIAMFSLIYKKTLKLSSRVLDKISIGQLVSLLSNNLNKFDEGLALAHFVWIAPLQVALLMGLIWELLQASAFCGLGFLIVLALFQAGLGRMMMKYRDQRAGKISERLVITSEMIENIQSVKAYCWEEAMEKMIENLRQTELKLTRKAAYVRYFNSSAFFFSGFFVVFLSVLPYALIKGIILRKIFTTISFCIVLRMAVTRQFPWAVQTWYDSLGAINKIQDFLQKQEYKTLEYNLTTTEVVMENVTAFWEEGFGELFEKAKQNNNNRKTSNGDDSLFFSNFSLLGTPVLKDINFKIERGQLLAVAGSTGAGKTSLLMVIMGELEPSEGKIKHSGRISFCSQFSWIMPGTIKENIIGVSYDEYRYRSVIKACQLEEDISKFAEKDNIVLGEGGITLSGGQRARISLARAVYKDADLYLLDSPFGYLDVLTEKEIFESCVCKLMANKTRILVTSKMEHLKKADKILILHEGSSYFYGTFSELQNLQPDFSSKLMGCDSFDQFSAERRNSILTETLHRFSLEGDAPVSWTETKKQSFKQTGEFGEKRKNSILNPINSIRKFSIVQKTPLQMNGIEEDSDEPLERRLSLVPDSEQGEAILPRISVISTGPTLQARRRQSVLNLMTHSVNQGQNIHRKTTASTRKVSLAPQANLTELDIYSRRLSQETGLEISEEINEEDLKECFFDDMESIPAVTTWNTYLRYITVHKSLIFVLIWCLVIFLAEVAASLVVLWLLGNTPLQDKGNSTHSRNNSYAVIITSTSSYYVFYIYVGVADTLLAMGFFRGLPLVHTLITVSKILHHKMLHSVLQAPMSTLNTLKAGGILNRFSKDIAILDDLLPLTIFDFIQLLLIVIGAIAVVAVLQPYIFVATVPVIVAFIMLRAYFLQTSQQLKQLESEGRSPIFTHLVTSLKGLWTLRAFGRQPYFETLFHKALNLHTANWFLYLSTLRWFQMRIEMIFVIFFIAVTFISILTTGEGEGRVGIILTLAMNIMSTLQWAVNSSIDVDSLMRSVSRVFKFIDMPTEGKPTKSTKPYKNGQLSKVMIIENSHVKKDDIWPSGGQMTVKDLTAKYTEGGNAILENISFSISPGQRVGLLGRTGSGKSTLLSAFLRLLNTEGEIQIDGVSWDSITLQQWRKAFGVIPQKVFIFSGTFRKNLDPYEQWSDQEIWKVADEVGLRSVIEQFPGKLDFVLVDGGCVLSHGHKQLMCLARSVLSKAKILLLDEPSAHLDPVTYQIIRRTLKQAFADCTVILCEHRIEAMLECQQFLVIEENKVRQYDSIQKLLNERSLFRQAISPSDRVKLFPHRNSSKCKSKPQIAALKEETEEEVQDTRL

| SMILES | EC50 [nM] | Emax [%] |
| --- | --- | --- |
| CC(C)COc1ccccc1-c1nc(NS(=O)(=O)c2cccc(N3CCC[C@@](C)(C(=O)O)C3)n2)ccc1C(F)(F)F [Example 396, (R)-1-(6-(N-(6-(2-isobutoxyphenyl)-5-(trifluoromethyl)pyridin-2-yl)sulfamoyl)pyridin-2-yl)-3-methylpiperidine-3-carboxylic Acid] | 845 |  |
| CC(C)COc1ccccc1-c1nc(NS(=O)(=O)c2cccc(N3CCC(C)(C(=O)O)CC3)n2)ccc1Cl [Example 397, 1-(6-(N-(5-chloro-6-(2-isobutoxyphenyl)pyridin-2-yl)sulfamoyl)pyridin-2-yl)-4-methylpiperidine-4-carboxylic Acid] | 1280 | 303 |
| CCCc1ccccc1-c1nc(NS(=O)(=O)c2cccc(N3CCC(C)(C(=O)O)CC3)n2)ccc1C(F)(F)F [Example 398, 4-methyl-1-(6-(N-(6-(2-propylphenyl)-5-(trifluoromethyl)pyridin-2-yl)sulfamoyl)pyridin-2-yl)piperidine-4-carboxylic Acid] | 615 | 711 |
| CC1(C(=O)O)CCCN(c2cccc(S(=O)(=O)Nc3ccc(C(F)(F)F)c(-c4ccccc4Cl)n3)n2)C1 (stereo not shown) [Example 399, 1-(6-(N-(6-(2-chlorophenyl)-5-(trifluoromethyl)pyridin-2-yl)sulfamoyl)pyridin-2-yl)-3-methylpiperidine-3-carboxylic Acid] | 2090 | 728 |
| CC(C)COc1ccccc1-c1nc(NS(=O)(=O)c2cccc(N3CCCC(C)(C(=O)O)C3)n2)ccc1Cl (stereo not shown) [Example 400, 1-(6-(N-(5-chloro-6-(2-isobutoxyphenyl)pyridin-2-yl)sulfamoyl)pyridin-2-yl)-3-methylpiperidine-3-carboxylic Acid] | 1100 | 672 |
| CCCc1ccccc1-c1nc(NS(=O)(=O)c2cccc(N3CCCC(C)(C(=O)O)C3)n2)ccc1C(F)(F)F (stereo not shown) [Example 401, 3-methyl-1-(6-(N-(6-(2-propylphenyl)-5-(trifluoromethyl)pyridin-2-yl)sulfamoyl)pyridin-2-yl)piperidine-3-carboxylic Acid] | 796 |  |
| CC1(C(=O)O)CCCN(c2cccc(S(=O)(=O)Nc3ccc(C(F)(F)F)c(-c4ccccc4C4CC4)n3)n2)C1 (stereo not shown) [Example 402, 1-(6-(N-(6-(2-cyclopropylphenyl)-5-(trifluoromethyl)pyridin-2-yl)sulfamoyl)pyridin-2-yl)-3-methylpiperidine-3-carboxylic Acid] | 778 | 729 |
| C[C@@]1(C(=O)O)CCCN(c2cccc(S(=O)(=O)Nc3cccc(-c4ccccc4C4CC4)n3)n2)C1 [Example 405, (R)-1-(6-(N-(6-(2-cyclopropylphenyl)pyridin-2-yl)sulfamoyl)pyridin-2-yl)-3-methylpiperidine-3-carboxylic Acid] | 2480 | 235 |
| Cc1ccc(NS(=O)(=O)c2cccc(N3CCC[C@@](C)(C(=O)O)C3)n2)nc1-c1ccccc1C1CC1 [Example 406, (R)-1-(6-(N-(6-(2-cyclopropylphenyl)-5-methylpyridin-2-yl)sulfamoyl)pyridin-2-yl)-3-methylpiperidine-3-carboxylic Acid] | 1520 | 334 |
| C[C@@]1(C(=O)O)CCCN(c2cccc(S(=O)(=O)Nc3ccc(C4CC4)c(-c4ccccc4C4CC4)n3)n2)C1 [Example 407, (R)-1-(6-(N-(5-cyclopropyl-6-(2-cyclopropylphenyl)pyridin-2-yl)sulfamoyl)pyridin-2-yl)-3-methylpiperidine-3-carboxylic Acid] | 1610 | 468 |
| COc1ccc(NS(=O)(=O)c2cccc(N3CCC[C@@](C)(C(=O)O)C3)n2)nc1-c1ccccc1C1CC1 [Example 408, (R)-1-(6-(N-(6-(2-cyclopropylphenyl)-5-methoxypyridin-2-yl)sulfamoyl)pyridin-2-yl)-3-methylpiperidine-3-carboxylic Acid] | 1990 | 271 |
| Cc1ccccc1-c1nc(NS(=O)(=O)c2cccc(N3CCC[C@@](C)(C(=O)O)C3)n2)ccc1C [Example 409, (R)-3-methyl-1-(6-(N-(5-methyl-6-(o-tolyl)pyridin-2-yl)sulfamoyl)pyridin-2-yl)piperidine-3-carboxylic Acid] | 1670 | 330 |
| COc1ccc(NS(=O)(=O)c2cccc(N3CCC[C@@](C)(C(=O)O)C3)n2)nc1-c1ccccc1C [Example 410, (R)-1-(6-(N-(5-methoxy-6-(o-tolyl)pyridin-2-yl)sulfamoyl)pyridin-2-yl)-3-methylpiperidine-3-carboxylic Acid] | 1920 | 210 |
| Cc1ccccc1-c1nc(NS(=O)(=O)c2cccc(N3CCC[C@@](C)(C(=O)O)C3)n2)ccc1C1CC1 [Example 411, (R)-1-(6-(N-(5-cyclopropyl-6-(o-tolyl)pyridin-2-yl)sulfamoyl)pyridin-2-yl)-3-methylpiperidine-3-carboxylic Acid] | 1390 | 400 |
| Cc1ccccc1-c1cccc(NS(=O)(=O)c2cccc(N3CCC[C@@](C)(C(=O)O)C3)n2)n1 [Example 412, (R)-3-methyl-1-(6-(N-(6-(o-tolyl)pyridin-2-yl)sulfamoyl)pyridin-2-yl)piperidine-3-carboxylic Acid] | 1890 | 221 |
| C[C@@]1(C(=O)O)CCCN(c2cccc(S(=O)(=O)Nc3ccc(C(F)(F)F)c(-c4ccccc4C4CC4)n3)n2)C1 [Example 413, (R)-1-(6-(N-(6-(2-cyclopropylphenyl)-5-(trifluoromethyl)pyridin-2-yl)sulfamoyl)pyridin-2-yl)-3-methylpiperidine-3-carboxylic Acid] | 576 | 906 |
| COc1ccc(Cl)c(-c2nc(NS(=O)(=O)c3cccc(N4CCCC(C)(C(=O)O)C4)n3)ccc2C(F)(F)F)c1 (stereo not shown) [Example 414, 1-(6-(N-(6-(2-chloro-5-methoxyphenyl)-5-(trifluoromethyl)pyridin-2-yl)sulfamoyl)pyridin-2-yl)-3-methylpiperidine-3-carboxylic Acid] | 1890 | 684 |
| Cc1ccccc1-c1nc(NS(=O)(=O)c2cccc(N3CCC[C@@](C)(C(=O)O)C3)n2)ccc1C(F)(F)F [Example 415, (3R)-3-methyl-1-(6-{[6-(2-methylphenyl)-5-(trifluoromethyl)pyridin-2-yl]sulfamoyl}pyridin-2-yl)piperidine-3-carboxylic Acid] | 1770 |  |
| Cc1ccc(F)cc1-c1nc(NS(=O)(=O)c2cccc(N3CCC[C@@](C)(C(=O)O)C3)n2)ccc1C(F)(F)F [Example 416, (3R)-1-(6-{[6-(5-fluoro-2-methylphenyl)-5-(trifluoromethyl)pyridin-2-yl]sulfamoyl}pyridin-2-yl)-3-methylpiperidine-3-carboxylic Acid] | 1900 |  |
| Cc1c(F)cccc1-c1nc(NS(=O)(=O)c2cccc(N3CCC[C@@](C)(C(=O)O)C3)n2)ccc1C(F)(F)F [Example 417, (3R)-1-(6-{[6-(3-fluoro-2-methylphenyl)-5-(trifluoromethyl)pyridin-2-yl]sulfamoyl}pyridin-2-yl)-3-methylpiperidine-3-carboxylic Acid] | 1880 |  |
| CC(C)c1ccccc1-c1nc(NS(=O)(=O)c2cccc(N[C@H]3CCC[C@H](C(=O)O)C3)n2)ccc1C(F)(F)F [Example 418, (1S,3S)-3-((6-(N-(6-(2-isopropylphenyl)-5-(trifluoromethyl)pyridin-2-yl)sulfamoyl)pyridin-2-yl)amino)cyclohexanecarboxylic Acid] | 1220 | 644 |
| Cc1ccccc1-c1nc(NS(=O)(=O)c2cccc(N3CCC4(CC4C(=O)O)C3)n2)ccc1C(F)(F)F (stereo not shown) [Example 419, 5-(6-(N-(6-(o-tolyl)-5-(trifluoromethyl)pyridin-2-yl)sulfamoyl)pyridin-2-yl)-5-azaspiro[2.4]heptane-1-carboxylic Acid] | 2390 | 644 |
| O=C(O)C1CC12CCN(c1cccc(S(=O)(=O)Nc3ccc(C(F)(F)F)c(-c4ccccc4C4CC4)n3)n1)C2 (stereo not shown) [Example 420, 5-(6-(N-(6-(2-cyclopropylphenyl)-5-(trifluoromethyl)pyridin-2-yl)sulfamoyl)pyridin-2-yl)-5-azaspiro[2.4]heptane-1-carboxylic Acid] | 1920 | 705 |
| C[C@@]1(C(=O)O)CCCN(c2cccc(S(=O)(=O)Nc3ccc(C(F)(F)F)c(-c4ccccc4Cl)n3)n2)C1 [Example 421, (R)-1-(6-(N-(6-(2-chlorophenyl)-5-(trifluoromethyl)pyridin-2-yl)sulfamoyl)pyridin-2-yl)-3-methylpiperidine-3-carboxylic Acid] | 2040 |  |
| CC(C)COc1ccccc1-c1nc(NS(=O)(=O)c2cccc(N3CCC[C@@](C)(C(=O)O)C3)n2)ccc1Cl [Example 422, (R)-1-(6-(N-(5-chloro-6-(2-isobutoxyphenyl)pyridin-2-yl)sulfamoyl)pyridin-2-yl)-3-methylpiperidine-3-carboxylic Acid] | 1380 | 905 |
| CCCc1ccccc1-c1nc(NS(=O)(=O)c2cccc(N3CCC[C@@](C)(C(=O)O)C3)n2)ccc1C(F)(F)F [Example 423, (R)-3-methyl-1-(6-(N-(6-(2-propylphenyl)-5-(trifluoromethyl)pyridin-2-yl)sulfamoyl)pyridin-2-yl)piperidine-3-carboxylic Acid] | 757 |  |
| COc1ccc(Cl)c(-c2nc(NS(=O)(=O)c3cccc(N4CCC[C@@](C)(C(=O)O)C4)n3)ccc2C(F)(F)F)c1 [Example 424, (R)-1-(6-(N-(6-(2-chloro-5-methoxyphenyl)-5-(trifluoromethyl)pyridin-2-yl)sulfamoyl)pyridin-2-yl)-3-methylpiperidine-3-carboxylic Acid] | 2020 |  |
